Results from publication PMC9495854, “Novel Phenothiazine/Donepezil-like Hybrids Endowed with Antioxidant Activity for a Multi-Target Approach to the Therapy of Alzheimer’s Disease” (Antioxidants, 2022).
Marks after values point to notes of the source that are not given here.

Experiments:
hBChE = molecular target: T1, hBChE (Homo sapiens, UniProt P06276); assay: biochemical; conditions: mean ± SEM
T1 construct: purchased
Description: The experiments were carried out using a properly modified version of Ellman’s spectrophotometric assay, adapted to a 96-well plate procedure. All reagents, including enzymes, were purchased from common suppliers. Incubation of the proper enzyme with the single compound at different concentrations was performed in clear flat-bottomed, 96-well plates (Greiner Bio-One GmbH, Frickenhausen, Germany) and in duplicate. […] Fluorescence measures were carried out using Tecan Infinite M1000 Pro multiplate reader (Tecan, Cernusco S.N., Italy). IC50 values and inhibition values were calculated as the mean of three independent experiments and are expressed as mean ± SEM [13].

FAAH Human recombinant = molecular target: T2, FAAH Human recombinant (Homo sapiens, UniProt O00519); assay: FAAH inhibition, fluorometric assay; format: biochemical; conditions: mean ± SEM; read-out: hFAAH (IC50)
T2 construct: purchased Cayman Chemical
T2 sequence (O00519 1-579): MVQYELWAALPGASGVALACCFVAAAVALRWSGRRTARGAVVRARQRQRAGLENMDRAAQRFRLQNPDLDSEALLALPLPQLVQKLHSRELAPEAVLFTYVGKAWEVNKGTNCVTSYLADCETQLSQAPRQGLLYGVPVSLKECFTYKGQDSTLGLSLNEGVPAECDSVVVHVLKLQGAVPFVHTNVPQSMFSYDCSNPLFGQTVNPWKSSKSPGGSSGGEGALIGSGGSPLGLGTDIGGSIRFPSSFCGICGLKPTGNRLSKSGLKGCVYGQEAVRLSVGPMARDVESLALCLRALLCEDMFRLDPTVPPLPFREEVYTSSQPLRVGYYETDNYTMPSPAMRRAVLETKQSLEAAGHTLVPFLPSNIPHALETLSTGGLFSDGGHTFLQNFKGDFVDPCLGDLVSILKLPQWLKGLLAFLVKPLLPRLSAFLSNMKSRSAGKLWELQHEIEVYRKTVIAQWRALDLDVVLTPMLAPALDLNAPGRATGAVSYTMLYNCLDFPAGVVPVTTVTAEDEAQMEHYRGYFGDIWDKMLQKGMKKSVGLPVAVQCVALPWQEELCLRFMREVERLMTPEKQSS
Description: The fatty acid amide hydrolase inhibition was measured for the final compounds using 96-well black flat-bottom microtiter NBS plates (COSTAR flat black). The total volume was 150 µL: the single hybrid was pre-incubated at different concentrations with the enzyme (FAAH Human recombinant, Cayman Chemical, Ann Arbor, MI, USA) in the specific fluorometric assay buffer (tris-HCl 125 mM, Na2EDTA · 2H2O 1 mM, pH = 9.0) for ten minutes at RT, using an orbital shaker. A 50 μL solution of the substrate (7-amino-4-methyl-2H-1-benzopyran-2-one-5Z,8Z,11Z,14Z-eicosatetraen-amide, at a final concentration of 5 µM) was then added. The plates were then incubated for 1 h at 37 °C in a Tecan Infinite M1000 Pro (Tecan, Cernusco S.N., Italy), reading fluorescence values from each well every 30s (λex = 340 nm, λem = 450 nm). The inhibitor activity was expressed as relative fluorescence units (RFU), using the values obtained from control wells lacking the inhibitor and blank wells lacking both inhibitor and enzyme to calculate percent inhibition values for each well. IC50 values are expressed as mean ± SEM of at least two independent measurements performed in triplicate.

SH-SY5Y cells = assay: MTT cell viability assay, SH-SY5Y; format: cell-based; conditions: 24 h exposure
Description: Human hepatocellular liver carcinoma (HepG2) cell line and human neuroblastoma cell line, SH-SY5Y, were purchased from the American Type Culture Collection (ATCC, Manassas, VA, USA) and maintained at 37 °C in a humidified atmosphere (95% air and 5% carbon dioxide), and they were periodically screened for contamination. HepG2 cells were cultured in Eagle’s Minimum Essential Medium (MEM, Euroclone S.p.A., Pero, MI, Italy), supplemented with 10% Fetal Bovine Serum (FBS, Euroclone S.p.A., Pero, MI, Italy), 1% L-glutamine (Euroclone S.p.A., Pero, MI, Italy), 100 U/mL penicillin/streptomycin (Euroclone S.p.A., Pero, MI, Italy), 1% Non-Essential Amino Acids (NEAA, Euroclone S.p.A., Pero, MI, Italy). SH-SY5Y cells were grown in a 1:1 mixture of Dulbecco’s modified Eagle’s medium (DMEM)—high glucose (Euroclone S.p.A., Pero, MI, Italy) and Ham’s F12 Medium (Euroclone S.p.A., Pero, MI, Italy) supplemented with 10% FBS, 1% L-glutamine and 100 U/mL penicillin/streptomycin. For cell assays, cells were trypsinized using Trypsin-EDTA 1X in PBS (Euroclone S.p.A., Pero, MI, Italy).
HepG2 and SH-SY5Y cell viability was assessed as previously reported by using a conventional 3-(4,5-dimethylthiazol-2-yl)-2,5-diphenyltetrazolium bromide (MTT) assay. In brief, viable cells were seeded and grown for 24 h into a sterile 96-well cell culture cluster (Corning, Sigma-Aldrich, St. Louis, MO, USA) in a complete medium and maintained at 37 °C in a humidified atmosphere with 5% CO2. The cells were then added with different concentrations of each compound for a period of 1 h or 24 h. At the end, the culture medium was replaced by a solution of 0.5 mg/mL MTT (Sigma-Aldrich, St. Louis, MO, USA) in PBS. After 2 h of incubation at 37 °C in 5% CO2, the supernatant was carefully removed from each well, and the formazan crystals were dissolved in DMSO. The absorbance values were measured at 570 nm using Tecan Infinite M1000 Pro (Tecan, Cernusco S.N., Italy) and DMSO medium as blank solution. The results were reported as % cell viability = [optical density (OD) of tested compound/medium OD of control cells] × 100. The results are expressed as mean ± SEM of at least three independent measurements in triplicate.

T1 sequence (P06276 29-602): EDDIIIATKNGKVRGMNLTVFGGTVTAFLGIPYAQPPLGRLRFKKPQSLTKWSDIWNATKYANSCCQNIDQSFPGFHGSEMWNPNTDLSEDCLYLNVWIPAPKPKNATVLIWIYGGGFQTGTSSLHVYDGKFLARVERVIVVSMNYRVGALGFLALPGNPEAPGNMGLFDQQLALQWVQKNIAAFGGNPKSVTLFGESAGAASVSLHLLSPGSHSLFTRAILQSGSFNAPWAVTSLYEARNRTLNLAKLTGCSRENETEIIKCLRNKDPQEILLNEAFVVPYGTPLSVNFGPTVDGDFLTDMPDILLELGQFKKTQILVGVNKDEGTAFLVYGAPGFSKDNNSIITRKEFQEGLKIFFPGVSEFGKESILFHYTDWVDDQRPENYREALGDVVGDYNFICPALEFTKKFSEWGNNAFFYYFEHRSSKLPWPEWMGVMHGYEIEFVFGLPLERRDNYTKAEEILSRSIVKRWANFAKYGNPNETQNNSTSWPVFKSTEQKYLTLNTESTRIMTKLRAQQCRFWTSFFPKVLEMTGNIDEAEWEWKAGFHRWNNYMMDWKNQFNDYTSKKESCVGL

| Structure (SMILES) | IC50 (hBChE) | IC50 (FAAH Human recombinant) | hBChE I% at 10 µM (hBChE; inhibition at 10 µM) | MTT cytotoxicity IC50 ± SEM SHSY-5Y 24 h (SH-SY5Y cells) |
| --- | --- | --- | --- | --- |
| O=C(NCC1CCN(Cc2ccccc2F)CC1)c1ccc2c(c1)Nc1ccccc1S2 [Compound 11d, N-((1-(2-Fluorobenzyl)piperidin-4-yl)methyl)-10H-phenothiazine-2-carboxamide] | 1.2 ± 0.01 µM | 5.06 ± 0.4 µM | – | – |
| O=C(NCC1CCN(Cc2ccccc2Cl)CC1)c1ccc2c(c1)Nc1ccccc1S2 [Compound 11b, N-((1-(2-Chlorobenzyl)piperidin-4-yl)methyl)-10H-phenothiazine-2-carboxamide] | 1.98 ± 0.12 µM | 3.8 ± 0.9 µM | – | – |
| O=C(NCC1CCN(Cc2ccccc2)CC1)c1ccc2c(c1)Nc1ccccc1S2 [Compound 11a, N-((1-Benzylpiperidin-4-yl)methyl)-10H-phenothiazine-2-carboxamide] | 2.16 ± 0.27 µM | 22.6 ± 1.6 µM | – | – |
| CC(=O)N1c2ccccc2Sc2ccc(C(=O)NCCN3CCN(Cc4ccccc4Cl)CC3)cc21 [Compound 13, 10-Acetyl-N-(2-(4-(2-chlorobenzyl)piperazin-1-yl)ethyl)-10H-phenothiazine-2-carboxamide] | – | 16.9 ± 4.4 µM | – | – |
| O=C(NCCN1CCN(Cc2ccccc2Cl)CC1)c1ccc2c(c1)Nc1ccccc1S2 [Compound 12b, N-(2-(4-(2-Chlorobenzyl)piperazin-1-yl)ethyl)-10H-phenothiazine-2-carboxamide] | – | 6.31 ± 1.28 µM | – | – |
| Cc1ccccc1CN1CCC(CNC(=O)c2ccc3c(c2)Nc2ccccc2S3)CC1 [Compound 11c, N-((1-(2-Methylbenzyl)piperidin-4-yl)methyl)-10H-phenothiazine-2-carboxamide] | 1.47 ± 0.03 µM | 3.08 ± 0.44 µM | – | – |
| COc1cccc(CN2CCC(CNC(=O)c3ccc4c(c3)Nc3ccccc3S4)CC2)c1 [Compound 11e, N-((1-(3-Methoxybenzyl)piperidin-4-yl)methyl)-10H-phenothiazine-2-carboxamide] | – | 13 ± 3.4 µM | 47% ± 1 ^b | – |
| Cc1ccccc1CN1CCN(CCNC(=O)c2ccc3c(c2)Nc2ccccc2S3)CC1 [Compound 12c, N-(2-(4-(2-Methylbenzyl)piperazin-1-yl)ethyl)-10H-phenothiazine-2-carboxamide] | 2.5 ± 0.06 µM | 7.33 ± 0.86 µM | – | – |
| O=C(NCCN1CCN(Cc2ccccc2)CC1)c1ccc2c(c1)Nc1ccccc1S2 [Compound 12a, N-(2-(4-Benzylpiperazin-1-yl)ethyl)-10H-phenothiazine-2-carboxamide] | 2.02 ± 0.03 µM | 41.4 ± 0.9 µM | – | – |
| O=C(NCCN1CCN(Cc2ccccc2F)CC1)c1ccc2c(c1)Nc1ccccc1S2 [Compound 12d, N-(2-(4-(2-Fluorobenzyl)piperazin-1-yl)ethyl)-10H-phenothiazine-2-carboxamide] | 4.33 ± 0.19 µM | 9.65 ± 2.45 µM | – | no cytotoxic effects |
